Here are results for one substance from patent publication US20130011845A1, “MICRORNA REGULATING THE INSULIN SIGNALING PATHWAY, AND METHOD FOR SCREENING MATERIAL FOR CONTROLLING THE ACTION OF A TARGET THEREOF” (SNU R & DB Foundation, priority 2009, published 2013).

Holding throughout (format): cell-based
Data set [1] deals with Lar 3′UTR. In words: dual-luciferase 3′UTR reporter assay, pAC-Lar. Conditions: luciferase reporter with Lar 3′UTR, drosophila S2 cell lines; average of at least two independent experiments. The method, then:
(§1) In order to determine whether the target genes identified in Example 7 are in actuality targets of miR-8 and miR-200 family miRNAs, the inventors performed cloning. In other words, they inserted a luciferase gene into downstream of each target gene's 3′UTR containing the miRNA target sites. Specifically, in order to obtain cDNAs of respective target genes, from drosophila S2 cell lines or human Hela cell lines, total RNA was extracted by using RNeasy mini kit (QIAGEN, US). 1 μg of total RNA and 1 μl of Oligo-dT (Invitrogen, US) were charged with up to 50 μl of distilled water, and placed into SuperScript First-Strand Synthesis System (Invitrogen, US), followed by RT-PCR reaction. Through the reaction at 65° C. for 6 min, at 4° C. for 5 min, at 42° C. for 60 min, at 95° C. for 5 min, and at 4° C. for 5 min, cDNA was synthesized. […]
(§2) Reporter plasmids and renilla luciferase expression vectors (Promega, US), as noted in Table 4, and miRNAs of miR-200 family of miR-141, miR-200a (hsa-miR-200a, SEQ ID: 87: 5′-[…]-3′), miR-200b, miR-200c (has-miR-200c, SEQ ID: 88: 5′-[…]-3′) and miR-429, and miR-8 (dme-miR-8, SEQ ID: 89: 5′-[…]-3′) were bought from Samchonri and cotransfected into drosophila S2 cell lines or human Hela cell lines. Then, the activities of luciferase were measured through dual-luciferase assay (Promega, US) by a luminometer (Biorad). […]
On the technique in general: In a reporter assay the amount or activity of a reporter protein is the signal.

The subject of data set [2] is ush 3′UTR. Nature of the data set: dual-luciferase 3′UTR reporter assay, pAC-ush. Conditions: luciferase reporter with ush 3′UTR, drosophila S2 cell lines; average of at least two independent experiments. The method, then:
as §1, §2

Data set [3] relates to dbo 3′UTR. In words: dual-luciferase 3′UTR reporter assay, pAC-dbo. Conditions: luciferase reporter with dbo 3′UTR, drosophila S2 cell lines; average of at least two independent experiments. The method, then: as §1, §2
Data set [4] has as its system Ced-12 3′UTR. In words: dual-luciferase 3′UTR reporter assay, pAC-Ced-12. Conditions: luciferase reporter with Ced-12 3′UTR, drosophila S2 cell lines; average of at least two independent experiments. The method, then:
as §1, §2

Data set [5] relates to ebf 3′UTR. In words: dual-luciferase 3′UTR reporter assay, ebf. Conditions: luciferase reporter with ebf 3′UTR, drosophila S2 cell lines; average of at least two independent experiments. The method, then:
as §1, §2

Data set [6] has as its system CG8445 3′UTR. Nature of the data set: dual-luciferase 3′UTR reporter assay, pAC-CG8445. Conditions: luciferase reporter with CG8445 3′UTR, drosophila S2 cell lines; average of at least two independent experiments. The method, then:
as §1, §2

Data set [7] has as its system CG12333 3′UTR. Nature of the data set: dual-luciferase 3′UTR reporter assay, pAC-CG12333. Conditions: luciferase reporter with CG12333 3′UTR, drosophila S2 cell lines; average of at least two independent experiments. The method, then:
as §1, §2

Data set [8] has as its system Lap1 3′UTR. In words: dual-luciferase 3′UTR reporter assay, pAC-Lap1. Conditions: luciferase reporter with Lap1 3′UTR, drosophila S2 cell lines; average of at least two independent experiments. The method, then: as §1, §2

With “5′-UAAUACUGUCAGGUAAAGAUGUC-3′ (listed as RNA, chemistry not given here) [miR-8]”, the “Repression fold, Lar” value in data set [1] turned out to be 0.42 fold. For the same substance, in data set [2], the “Repression fold, ush” value worked out at 0.71 fold. The “Repression fold, dbo” value in data set [3] is recorded as 0.54 fold. Moreover, in data set [4], the “Repression fold, Ced-12” value was determined as 0.51 fold. In data set [5], the “Repression fold, ebf” value is given as 0.75 fold. For the same substance, the “Repression fold, CG8445” value in data set [6] stood at 0.43 fold. Moreover, the “Repression fold, CG12333” value in data set [7] is listed as 0.59 fold. In data set [8], the “Repression fold, Lap1” value turned out to be 0.46 fold.
